IC50 data for 24 compounds are collected here from BindingDB's records for doi:10.7270/Q2C53J9J (University of Pittsburgh, 2010).

This assay concerns the target T1, Glucose-6-phosphate 1-dehydrogenase (Leuconostoc mesenteroides, UniProt P11411).
T1 sequence (P11411 whole entry): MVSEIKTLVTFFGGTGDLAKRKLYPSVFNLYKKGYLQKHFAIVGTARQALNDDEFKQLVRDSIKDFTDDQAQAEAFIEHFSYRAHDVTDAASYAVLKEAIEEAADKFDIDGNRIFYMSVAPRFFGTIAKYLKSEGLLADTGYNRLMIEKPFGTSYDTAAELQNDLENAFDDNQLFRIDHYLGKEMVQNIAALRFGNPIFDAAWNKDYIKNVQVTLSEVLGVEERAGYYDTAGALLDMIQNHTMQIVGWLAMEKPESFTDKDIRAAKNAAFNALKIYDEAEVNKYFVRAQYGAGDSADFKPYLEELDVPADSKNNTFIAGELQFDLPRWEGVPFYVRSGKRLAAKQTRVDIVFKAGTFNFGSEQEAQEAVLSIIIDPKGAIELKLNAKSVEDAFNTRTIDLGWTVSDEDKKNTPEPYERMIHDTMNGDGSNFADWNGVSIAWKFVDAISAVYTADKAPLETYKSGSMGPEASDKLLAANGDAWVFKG
Put plainly: Leuconostoc G6PDH inhibition potency, SAR follow-up, counter-screen for TbHK1 inhibitor project, biochemical, analogue series, IC50 (AID 2579).

`COc1ccc(C(=O)Nc2cc(Cl)ccc2C(=O)O)cc1OC` [4-chloro-2-[(3,4-dimethoxybenzoyl)amino]benzoic acid] gave an IC50 of over 25 µM.
`Cc1ccc(-n2sc3cc(F)ccc3c2=O)c(C)c1` [2-(2,4-dimethylphenyl)-6-fluoranyl-1,2-benzothiazol-3-one] displayed an IC50 of over 25 µM.
In turn, `O=C(Nc1cc(Cl)ccc1C(=O)O)c1ccc(OC(F)(F)F)cc1` [KUC105992N] yielded an IC50 of over 25 µM.
`COc1ccc(C(=O)Nc2cc(F)ccc2C(=O)O)cc1` [KSC-6-276] showed an IC50 of over 25 µM.
Regarding `O=C(Cn1sc2ccccc2c1=O)Nc1ccccc1Cl` [N-(2-chlorophenyl)-2-(3-oxidanylidene-1,2-benzothiazol-2-yl)ethanamide], the IC50 was over 25 µM.
The value for `O=C(Nc1cc(Cl)ccc1C(=O)O)c1ccc(C2CC2)cc1` [KUC106496N] was over 25 µM; that for `COc1ccc(C(=O)Nc2cc(Cl)ccc2C#N)cc1` [KSC-6-267] was over 25 µM.
The compound `COc1ccc(C(=O)NCC(=O)O)cc1` showed an IC50 of over 25 µM.
As for `Cc1cc(=O)n(-c2ccccc2)s1`, the figure is over 25 µM; as for `COc1ccc(C(=O)Nc2cc(Cl)ccc2C(=O)O)cn1` [4-chloranyl-2-[(6-methoxypyridin-3-yl)carbonylamino]benzoic acid], over 25 µM; as for `O=C(Cn1sc2ccccc2c1=O)Nc1ccccc1` [KUC104122N], over 25 µM.
`Cc1cccc(C(=O)Nc2cc(Cl)ccc2C(=O)O)c1` [4-chloro-2-[[(3-methylphenyl)-oxomethyl]amino]benzoic acid] came in with an IC50 of over 25 µM.
In turn, `O=c1s[nH]c2ccccc12` [KUC103850N] showed an IC50 of over 25 µM.
For `O=C(O)c1ccc(Cl)cc1NC(=O)c1coc2ccccc12` [2-[[3-benzofuranyl(oxo)methyl]amino]-4-chlorobenzoic acid], the IC50 was over 25 µM.
As for `O=c1c2cc(N3CCOCC3)ccc2sn1-c1ccccc1`, the figure is over 25 µM; as for `COc1ccc(C(=O)Nc2cccc(Cl)c2)cc1`, over 25 µM.
As for `Cc1ccc(NC(=O)Cn2sc3ccccc3c2=O)cc1` [KUC104219N], the figure is over 25 µM; as for `CCOc1ccc(C(=O)Nc2cc(Cl)ccc2C(=O)O)cc1` [4-chloro-2-[[(4-ethoxyphenyl)-oxomethyl]amino]benzoic acid], over 25 µM.
On to `N#Cc1ccc2c(=O)n(-c3ccccc3)sc2c1` [3-oxidanylidene-2-phenyl-1,2-benzothiazole-6-carbonitrile], for which the IC50 was over 25 µM.
With `O=c1c2ccccc2sn1-c1ccc(Cl)cc1` [2-(4-chlorophenyl)-1,2-benzothiazol-3-one], the half-inhibitory concentration (IC50) is over 25 µM.
`CC(C)c1cccc(C(=O)Nc2cc(Cl)ccc2C(=O)O)c1` [KUC106459N] displayed an IC50 of over 25 µM.
`O=C(Nc1cc(Cl)ccc1C(=O)O)c1ccoc1` [4-chloranyl-2-(furan-3-ylcarbonylamino)benzoic acid]: the IC50 is over 25 µM.
Compound `O=c1c2cccnc2sn1-c1ccccc1` [2-(Phenyl)-isothiazolo[5,4-b]pyridin-3(2H)-one] had an IC50 of over 25 µM.
`COc1ccc(C(=O)NC(CC(=O)O)c2cccc(Cl)c2)cc1` (centres undefined) [3-(3-chlorophenyl)-3-[(4-methoxybenzoyl)amino]propanoic acid] displayed an IC50 of over 25 µM.
